Test results taken from patent US20070293484A1, “Thiophene Heteroaryl Amines” (SUGEN, INC., priority 2004, published 2007).

Experiments:
GST-Flk1 = target: T1, GST-Flk1 (Mus musculus, UniProt P35918); test: GST-FLK-1 bioassay (ELISA, tyrosine kinase activity on poly(glu,tyr)); assay type: biochemical
T1 construct: GST-Flk1cd purified from sf9 recombinant baculovirus transformation (SUGEN, Inc.); host or cells: Sf9 insect cells (recombinant baculovirus)
Description: The assays described herein are performed in an ELISA (Enzyme-Linked Immunosorbent Sandwich Assay) format (Voller, et al., 1980, “Enzyme-Linked Immunosorbent Assay,” Manual of Clinical Immunology, 2d ed., Rose and Friedman, Am. Soc. Of Microbiology, Washington, D.C., pp. 359-371). The general procedure is as follows: a compound is introduced to cells expressing the test kinase, either naturally or recombinantly, for a selected period of time after which, if the test kinase is a receptor, a ligand known to activate the receptor is added. The cells are lysed and the lysate is transferred to the wells of an ELISA plate previously coated with a specific antibody recognizing the substrate of the enzymatic phosphorylation reaction. Non-substrate components of the cell lysate are washed away and the amount of phosphorylation on the substrate is detected with an antibody specifically recognizing phosphotyrosine compared with control cells that were not contacted with a test compound.
This assay analyzes the tyrosine kinase activity of GST-Flk1 on poly(glu,tyr) peptides.
• 1. Corning 96-well ELISA plates (Corning Catalog No. 5805-96). • 2. poly(glu,tyr) 4:1, lyophilizate (Sigma Catalog #P0275). • 3. Preparation of poly(glu,tyr)(pEY) coated assay plates: Coat 2 ug/well of poly(glu,tyr)(pEY) in 100 μL PBS, hold at room temperature for 2 hours or at 4° C. overnight. Cover plates well to prevent evaporation. • 4. PBS Buffer: for 1 L, mix 0.2 g KH2PO4, 1.15 g Na2HPO4, 0.2 g KCl and 8 g NaCl in approx. 900 ml dH2O. When all reagents have dissolved, adjust the pH to 7.2 with HCl. Bring total volume to 1 L with dH2O. • 5. PBST Buffer: to 1 L of PBS Buffer, add 1.0 ml Tween-20. • 6. TBB—Blocking Buffer: for 1 L, mix 1.21 g TRIS, 8.77 g NaCl, 1 ml TWEEN-20 in approximately 900 ml dH2O. Adjust pH to 7.2 with HCl. Add 10 g BSA, stir to dissolve. Bring total volume to 1 L with dH2O. Filter to remove particulate matter. • 7. 1% BSA in PBS: To make a 1× working solution, add 10 g BSA to approx. 990 ml PBS buffer, stir to dissolve. Adjust total volume to 1 L with PBS buffer, filter to remove particulate matter. • 8. 50 mM Hepes pH 7.5. • 9. GST-Flk1cd purified from sf9 recombinant baculovirus transformation (SUGEN, Inc.). • 10. 4% DMSO in dH2O. • 11. 10 mMATP in dH2O. • 12. 40 mM MnCl2 • 13. Kinase Dilution Buffer (KDB): mix 10 ml Hepes (pH 7.5), 1 ml 5M NaCl, 40 μL 100 mM sodium orthovanadate and 0.4 ml of 5% BSA in dH2O with 88.56 ml dH2O. • 14. NUNC 96-well V bottom polypropylene plates, Applied Scientific Catalog #AS-72092 • 15. EDTA: mix 14.12 g ethylenediaminetetraacetic acid (EDTA) to approx. 70 ml dH2O. Add 10 N NaOH until EDTA dissolves. Adjust pH to 8.0. Adjust total volume to 100 ml with dH2O. • 16. 1^0 Antibody Dilution Buffer: mix 10 ml of 5% BSA in PBS buffer with 89.5 ml TBST. • 17. Anti-phosphotyrosine monoclonal antibody conjugated to horseradish peroxidase (PY99 HRP, Santa Cruz Biotech). • 18. 2,2′-Azinobis(3-ethylbenzthiazoline-6-sulfonic acid (ABTS, Moss, Cat. No. ABST). • 19. 10% SDS. Procedure: • 1. Coat Corning 96-well ELISA plates with 2 μg of polyEY peptide in sterile PBS as described in step 3 of Materials and Reagents. • 2. Remove unbound liquid from wells by inverting plate. Wash once with TBST. Pat the plate on a paper towel to remove excess liquid. • 3. Add 100 μl of 1% BSA in PBS to each well. Incubate, with shaking, for 1 hr. at room temperature. • 4. Repeat step 2. • 5. Soak wells with 50 mM HEPES (pH7.5) (150 μl/well). • 6. Dilute test compound with dH2O/4% DMSO to 4 times the desired final assay concentration in 96-well polypropylene plates. • 7. Add 25 μl diluted test compound to ELISA plate. In control wells, place 25 μl of dH2O/4% DMSO. • 8. Add 25 μl of 40 mM MnCl2 with 4×ATP (2 μM) to each well. • 9. Add 25 μl 0.5M EDTA to negative control wells. • 10. Dilute GST-Flk1 to 0.005 μg (5 ng)/well with KDB. • 11. Add 50 μl of diluted enzyme to each well. • 12. Incubate, with shaking, for 15 minutes at room temperature. • 13. […]

PDGFR = target: T2, PDGFR (Homo sapiens, UniProt P09619); test: PDGFR bioassay (ELISA, in vitro kinase activity); assay type: biochemical; conditions: PDGFR-β expressing NIH 3T3 cell lysate; read-out: IC50 (μM) PDGF-R
T2 construct: SUGEN, Inc; host or cells: NIH 3T3 cell lysate; receptor captured on plate with monoclonal anti-PDGFR antibody 28D4C10
T2 sequence (P09619 33-1106, species assumed): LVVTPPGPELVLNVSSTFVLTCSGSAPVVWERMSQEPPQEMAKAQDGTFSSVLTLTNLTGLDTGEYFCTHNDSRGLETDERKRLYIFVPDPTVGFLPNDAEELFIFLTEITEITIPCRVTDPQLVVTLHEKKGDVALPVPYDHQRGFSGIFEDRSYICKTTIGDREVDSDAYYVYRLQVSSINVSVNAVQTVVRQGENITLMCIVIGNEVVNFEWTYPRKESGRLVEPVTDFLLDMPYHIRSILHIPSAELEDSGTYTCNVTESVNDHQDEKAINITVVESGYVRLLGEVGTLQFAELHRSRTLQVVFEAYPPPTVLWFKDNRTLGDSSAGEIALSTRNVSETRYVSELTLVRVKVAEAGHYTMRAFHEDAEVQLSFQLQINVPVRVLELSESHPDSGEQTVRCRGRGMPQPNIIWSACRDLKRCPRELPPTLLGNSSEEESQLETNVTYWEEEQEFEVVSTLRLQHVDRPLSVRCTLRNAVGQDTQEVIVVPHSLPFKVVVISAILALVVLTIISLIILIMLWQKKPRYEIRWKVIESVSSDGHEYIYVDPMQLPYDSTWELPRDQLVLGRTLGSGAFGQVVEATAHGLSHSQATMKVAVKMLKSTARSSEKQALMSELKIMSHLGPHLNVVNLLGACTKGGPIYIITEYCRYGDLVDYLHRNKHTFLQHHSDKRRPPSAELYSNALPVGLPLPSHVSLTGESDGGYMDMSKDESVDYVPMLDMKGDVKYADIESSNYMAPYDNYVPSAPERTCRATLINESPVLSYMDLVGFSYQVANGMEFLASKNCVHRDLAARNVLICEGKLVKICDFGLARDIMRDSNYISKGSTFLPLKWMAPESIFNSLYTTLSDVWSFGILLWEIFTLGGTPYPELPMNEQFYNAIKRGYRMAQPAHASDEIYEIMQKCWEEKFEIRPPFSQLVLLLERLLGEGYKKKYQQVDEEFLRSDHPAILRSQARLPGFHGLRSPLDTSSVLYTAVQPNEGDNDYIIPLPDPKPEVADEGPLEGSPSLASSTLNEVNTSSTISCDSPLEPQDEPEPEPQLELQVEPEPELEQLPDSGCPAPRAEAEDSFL

T1 sequence (P35918 784-1345 limits assumed): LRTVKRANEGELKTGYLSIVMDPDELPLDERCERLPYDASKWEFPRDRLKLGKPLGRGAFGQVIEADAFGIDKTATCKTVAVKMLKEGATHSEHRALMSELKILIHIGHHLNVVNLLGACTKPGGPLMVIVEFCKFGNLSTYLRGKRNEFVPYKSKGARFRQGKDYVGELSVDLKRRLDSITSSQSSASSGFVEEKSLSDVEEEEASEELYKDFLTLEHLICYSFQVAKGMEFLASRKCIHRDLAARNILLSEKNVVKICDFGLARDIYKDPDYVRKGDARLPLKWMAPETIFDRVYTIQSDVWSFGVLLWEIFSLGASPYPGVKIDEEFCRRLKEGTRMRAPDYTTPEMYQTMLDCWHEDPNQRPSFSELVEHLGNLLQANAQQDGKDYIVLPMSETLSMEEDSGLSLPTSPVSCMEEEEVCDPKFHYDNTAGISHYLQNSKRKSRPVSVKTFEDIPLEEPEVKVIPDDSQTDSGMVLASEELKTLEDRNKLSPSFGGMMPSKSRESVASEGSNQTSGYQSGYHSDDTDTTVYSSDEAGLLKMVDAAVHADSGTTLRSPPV

| SMILES | IC50 (GST-Flk1) [µM] | IC50 (PDGFR) [µM] |
| --- | --- | --- |
| Nc1ccc(C(=O)Nc2ccc(Nc3ncc(-c4cccs4)cn3)cc2)cc1 [Example 16, 4-amino-N-{4-[(5-thien-2-ylpyrimidin-2-yl)amino]phenyl}benzamide] | > 20 | 0.99 |
| O=C(CNCCN1CCOCC1)Nc1ccc(Nc2ncc(-c3ccsc3)cn2)cc1 [Example 25, 2-(2-morpholinoethylamino)-N-(4-(5-(thiophen-3-yl)pyrimidin-2-ylamino)phenyl)acetamide] | 5.4 | 0.47 |
| O=C(CNCCN1CCOCC1)Nc1cccc(Nc2ncc(-c3ccsc3)cn2)c1 [Example 56, 2-(2-morpholin-4-yl-ethylamino)-N-[3-(5-thiophen-3-yl-pyrimidin-2-ylamino)-phenyl]-acetamide] | 2.4 | 0.09 |
